Measurements: patent US8486863B2, “Activators of lateral root formation” (VIB VZW, priority 2006, dated 2013)

Experiments:
[1] = tested on: Wild-type Arabidopsis thaliana; assay: Dose-response analysis of lateral root density and root length; format: in vivo
Experimental: FIG. 3: Dose-response analysis of class 1 (upper panel) and class 2 (lower panel) activators. Wild-type Arabidopsis thaliana seeds were germinated under standard conditions on agar plates. After 3 days of germination, seedlings were transferred to agar plates containing compound at different concentrations. Lateral root density was measured 10 days after germination. Bars represent standard errors.
FIG. 4: Dose-response analysis of A2, A11, A12, A14 and NAA. Wild-type Arabidopsis thaliana seeds were germinated under standard conditions on agar plates. After 3 days of germination, seedlings were transferred to agar plates containing compound at different concentrations and 1% DMSO. Plants transferred to agar plates containing 1% DMSO and no compound were used as controls. Lateral root density (left panels) and root length (right panels) were measured 10 days after germination. Bars represent standard errors.
For further phenotypic analysis, all plants were grown on vertically oriented square plates (Greiner Labortechnik, Austria) with solid medium derived from standard MS medium under the same conditions. 3 DAG plants were transferred to medium supplemented with compounds and were left to grow for another 7 days. After this, root length and number of LRs were counted using ImageJ 1.34 freeware.
As a subsequent step, the phenotypic effect of the 16 selected activators was determined in a dose-response analysis in which LR density (number of LRs per cm) was quantified (FIG. 3). Based upon potency and structure, two different classes of activators could be identified.

auxin signaling mutants [2] = assay: Effect of A12 and NAA on lateral root density and root length of auxin signaling mutants (Table 1); format: in vivo, Arabidopsis thaliana; set-up: Root length: unit not given here; conditions: 30 uM
Description: (§1) Afb1, Afb2, Afb3 and the triple mutant Tirlafb2afb3 were described by Dhamasiri et al. (2005). Tir1 was described by Ruegger et al., (1998); 1aa28 by Rogg et al., (2001); Tir7-1 by Ruegger et al., (1997); the Cyp79b2b3 double mutant by Ljung et al. (2005); the arf7arf19 double mutant by Fukaki et al., (2005); Aux1 by Bennett et al., (1996); Xbat32 by Nodzon et al., (2004), Axr1-12 by Timpte et al., (1995), Slr1 by Fukaki et al., 2002 and Axr3-1 by Collet et al., (2000) and the mutants were obtained from the publishing authors.
(§2) For phenotypic analysis, all mutants were grown on vertically oriented square plates (Greiner Labortechnik, Austria) with solid medium derived from standard MS medium. The plates were put in a growth chamber under continuous light (110 μE.m2.s1 photosynthetically active radiation, supplied by cool-white fluorescent tungsten tubes; Osram) at 22° C. Three days after germination, the mutant plants were transferred to medium supplemented with compounds and were left to grow for another 7 days. After this, root length and number of lateral roots were counted using ImageJ 1.34 freeware.
DMSO is used as negative control.

auxin signaling mutants [3] = assay: Effect of activators on lateral root density of auxin signaling mutants (Table 2); format: in vivo, Arabidopsis thaliana
Description: as §1, §2

[4] = tir TM (Tir1afb2afb3 triple mutant)

## NC(=S)NN=Cc1ccc(-c2cccc(C(F)(F)F)c2)o1 [A12, 5-[3-(trifluoromethyl)phenyl]-2-furaldehyde thiosemicarbazone]
[1]; dose-response, FIG. 3
  potency as activator of LR development (LR density): most potent activators of class 2
Auxin signaling mutants [2]; CDKB DN
  LR density: 9.09
  Root length: 1.56
Auxin signaling mutants [2]; Col-0
  Root length: 2.24
Auxin signaling mutants [2]; Ws
  LR density: 16.70
  Root length: 1.92
Auxin signaling mutants [2]; Xbat32
  LR density: 14.16
  Root length: 2.44
Auxin signaling mutants [2]; afb1-1
  LR density: 15.55
  Root length: 1.86
Auxin signaling mutants [2]; afb2-1
  LR density: 15.11
  Root length: 1.71
Auxin signaling mutants [2]; afb3-1
  LR density: 21.32
  Root length: 2.17
Auxin signaling mutants [2]; arf7arf19 DM (double mutant)
  LR density: 1.73
  Root length: 3.45
Auxin signaling mutants [2]; aux1
  LR density: 15.94
  Root length: 2.24
Auxin signaling mutants [2]; axr1-12
  LR density: 15.84
  Root length: 1.62
Auxin signaling mutants [2]; axr5-1
  LR density: 14.10
  Root length: 3.40
Auxin signaling mutants [2]; cyp79b2-3 DM (double mutant)
  LR density: 17.30
  Root length: 2.26
Auxin signaling mutants [2]; iaa28-1
  LR density: 8.85
  Root length: 3.39
Auxin signaling mutants [2]; lax3
  LR density: 15.27
  Root length: 2.48
Auxin signaling mutants [2]; msg2-1
  LR density: 27.49
  Root length: 1.58
Auxin signaling mutants [2]; slr-1
  LR density: 0.00
  Root length: 1.90
Auxin signaling mutants [2]; tir1-1
  LR density: 13.38
  Root length: 2.34
Auxin signaling mutants [2]; tir7-1
  LR density: 17.30
  Root length: 1.52
Auxin signaling mutants [2]; [4]
  LR density: 4.82
  Root length: 2.60
Auxin signaling mutants [3]; Afb1-1, 30 uM
  lateral root density: 23.19 LR/cm
Auxin signaling mutants [3]; Afb2-1, 30 uM
  lateral root density: 10.44 LR/cm
Auxin signaling mutants [3]; Afb3-1, 30 uM
  lateral root density: 21.05 LR/cm
Auxin signaling mutants [3]; Arf7Arf19, 30 uM
  lateral root density: 0.94 LR/cm
Auxin signaling mutants [3]; Arf16, 30 uM
  lateral root density: 10.94 LR/cm
Auxin signaling mutants [3]; Arf17, 30 uM
  lateral root density: 15.09 LR/cm
Auxin signaling mutants [3]; Axrt-12, 30 uM
  lateral root density: 14.15 LR/cm
Auxin signaling mutants [3]; Cyp79, 30 uM
  lateral root density: 22.76 LR/cm
Auxin signaling mutants [3]; Iaa28-1, 30 uM
  lateral root density: 10.00 LR/cm
Auxin signaling mutants [3]; Tir7-1, 30 uM
  lateral root density: 27.42 LR/cm
Auxin signaling mutants [3]; TirTM, 30 uM
  lateral root density: 0.00 LR/cm

## Cc1c(N=Cc2cccc(Cl)c2Cl)cccc1[N+](=O)[O-] [A7, (2,3-dichlorobenzylidene)(2-methyl-3-nitrophenyl)amine]
Auxin signaling mutants [3]; Afb1-1, 3 uM
  lateral root density: 9.46 LR/cm
Auxin signaling mutants [3]; Afb2-1, 3 uM
  lateral root density: 2.69 LR/cm
Auxin signaling mutants [3]; Afb3-1, 3 uM
  lateral root density: 17.43 LR/cm
Auxin signaling mutants [3]; Arf7Arf19, 3 uM
  lateral root density: 0.00 LR/cm
Auxin signaling mutants [3]; Arf16, 3 uM
  lateral root density: 2.71 LR/cm
Auxin signaling mutants [3]; Arf17, 3 uM
  lateral root density: 3.40 LR/cm
Auxin signaling mutants [3]; Axrt-12, 3 uM
  lateral root density: 2.02 LR/cm
Auxin signaling mutants [3]; Cyp79, 3 uM
  lateral root density: 19.35 LR/cm
Auxin signaling mutants [3]; Iaa28-1, 3 uM
  lateral root density: 0.00 LR/cm
Auxin signaling mutants [3]; Tir1-1, 3 uM
  lateral root density: 1.01 LR/cm
Auxin signaling mutants [3]; Tir7-1, 3 uM
  lateral root density: 5.73 LR/cm
Auxin signaling mutants [3]; TirTM, 3 uM
  lateral root density: 0.00 LR/cm
Auxin signaling mutants [3]; Xbat32, 3 uM
  lateral root density: 1.23 LR/cm

## O=Cc1ccc(-c2cccc(C(F)(F)F)c2)o1 [A11var5]
[1]; structural variants, FIG. 6-8
  effect on LR formation (LR density), structure-activity analysis: minimal substructure required to induce LR formation

## O=C(NN=Cc1cccc(Cl)c1Cl)c1ccc(O)c(O)c1 [A6, N′-(2,3-dichlorobenzylidene)-3,4-dihydroxybenzohydrazide]
Auxin signaling mutants [3]; Afb1-1, 3 uM
  lateral root density: 10.89 LR/cm
Auxin signaling mutants [3]; Afb2-1, 3 uM
  lateral root density: 7.34 LR/cm
Auxin signaling mutants [3]; Afb3-1, 3 uM
  lateral root density: 14.40 LR/cm
Auxin signaling mutants [3]; Arf7Arf19, 3 uM
  lateral root density: 0.00 LR/cm
Auxin signaling mutants [3]; Arf16, 3 uM
  lateral root density: 6.67 LR/cm
Auxin signaling mutants [3]; Arf17, 3 uM
  lateral root density: 7.24 LR/cm
Auxin signaling mutants [3]; Axrt-12, 3 uM
  lateral root density: 4.78 LR/cm
Auxin signaling mutants [3]; Cyp79, 3 uM
  lateral root density: 31.92 LR/cm
Auxin signaling mutants [3]; Iaa28-1, 3 uM
  lateral root density: 0.00 LR/cm
Auxin signaling mutants [3]; Tir1-1, 3 uM
  lateral root density: 0.57 LR/cm
Auxin signaling mutants [3]; Tir7-1, 3 uM
  lateral root density: 11.42 LR/cm
Auxin signaling mutants [3]; TirTM, 3 uM
  lateral root density: 0.00 LR/cm
Auxin signaling mutants [3]; Xbat32, 3 uM
  lateral root density: 10.08 LR/cm

## Clc1cccc(C=Nc2ccc(N3CCOCC3)cc2)c1Cl [A4, (2,3-dichlorobenzylidene)[4-(4-morpholinyl)phenyl]amine]
Auxin signaling mutants [3]; Afb1-1, 3 uM
  lateral root density: 2.69 LR/cm
Auxin signaling mutants [3]; Afb2-1, 3 uM
  lateral root density: 2.16 LR/cm
Auxin signaling mutants [3]; Afb3-1, 3 uM
  lateral root density: 2.55 LR/cm
Auxin signaling mutants [3]; Arf7Arf19, 3 uM
  lateral root density: 0.00 LR/cm
Auxin signaling mutants [3]; Arf16, 3 uM
  lateral root density: 1.99 LR/cm
Auxin signaling mutants [3]; Arf17, 3 uM
  lateral root density: 1.87 LR/cm
Auxin signaling mutants [3]; Axrt-12, 3 uM
  lateral root density: 1.64 LR/cm
Auxin signaling mutants [3]; Cyp79, 3 uM
  lateral root density: 2.64 LR/cm
Auxin signaling mutants [3]; Iaa28-1, 3 uM
  lateral root density: 0.00 LR/cm
Auxin signaling mutants [3]; Tir1-1, 3 uM
  lateral root density: 0.89 LR/cm
Auxin signaling mutants [3]; Tir7-1, 3 uM
  lateral root density: 3.69 LR/cm
Auxin signaling mutants [3]; TirTM, 3 uM
  lateral root density: 0.00 LR/cm
Auxin signaling mutants [3]; Xbat32, 3 uM
  lateral root density: 0.91 LR/cm

## Nc1ncc(Cc2cccc(Cl)c2Cl)s1 [A3, 5-(2,3-dichlorobenzyl)-1,3-thiazol-2-amine]
Auxin signaling mutants [3]; Afb1-1, 3 uM
  lateral root density: 17.77 LR/cm
Auxin signaling mutants [3]; Afb2-1, 3 uM
  lateral root density: 19.58 LR/cm
Auxin signaling mutants [3]; Afb3-1, 3 uM
  lateral root density: 17.45 LR/cm
Auxin signaling mutants [3]; Arf7Arf19, 3 uM
  lateral root density: 33.59 LR/cm
Auxin signaling mutants [3]; Arf16, 3 uM
  lateral root density: 11.32 LR/cm
Auxin signaling mutants [3]; Arf17, 3 uM
  lateral root density: 13.31 LR/cm
Auxin signaling mutants [3]; Axrt-12, 3 uM
  lateral root density: 15.77 LR/cm
Auxin signaling mutants [3]; Cyp79, 3 uM
  lateral root density: 21.24 LR/cm
Auxin signaling mutants [3]; Iaa28-1, 3 uM
  lateral root density: 13.96 LR/cm
Auxin signaling mutants [3]; Tir1-1, 3 uM
  lateral root density: 11.91 LR/cm
Auxin signaling mutants [3]; Tir7-1, 3 uM
  lateral root density: 26.15 LR/cm
Auxin signaling mutants [3]; TirTM, 3 uM
  lateral root density: 10.88 LR/cm
Auxin signaling mutants [3]; Xbat32, 3 uM
  lateral root density: 13.07 LR/cm

## Cc1ccccc1OCC(=O)NN=Cc1ccc(C(=O)O)cc1 [A9, 4-{2-[(2-methylphenoxy)acetyl]carbonohydrazonoyl}benzoic acid]
Auxin signaling mutants [3]; Afb1-1, 30 uM
  lateral root density: 13.57 LR/cm
Auxin signaling mutants [3]; Afb2-1, 30 uM
  lateral root density: 11.19 LR/cm
Auxin signaling mutants [3]; Afb3-1, 30 uM
  lateral root density: 16.77 LR/cm
Auxin signaling mutants [3]; Arf7Arf19, 30 uM
  lateral root density: 0.25 LR/cm
Auxin signaling mutants [3]; Arf16, 30 uM
  lateral root density: 6.67 LR/cm
Auxin signaling mutants [3]; Arf17, 30 uM
  lateral root density: 12.86 LR/cm
Auxin signaling mutants [3]; Axrt-12, 30 uM
  lateral root density: 6.09 LR/cm
Auxin signaling mutants [3]; Cyp79, 30 uM
  lateral root density: 13.29 LR/cm
Auxin signaling mutants [3]; Iaa28-1, 30 uM
  lateral root density: 12.33 LR/cm
Auxin signaling mutants [3]; Tir1-1, 30 uM
  lateral root density: 3.29 LR/cm
Auxin signaling mutants [3]; Tir7-1, 30 uM
  lateral root density: 17.91 LR/cm
Auxin signaling mutants [3]; TirTM, 30 uM
  lateral root density: 0.00 LR/cm
Auxin signaling mutants [3]; Xbat32, 30 uM
  lateral root density: 8.43 LR/cm
